Assay [1] has as its system Cladosporium cucumerinum. As to the kind of experiment: Antifungal activity against Cladosporium cucumerinum assessed as zone of inhibition at 30 ug per disc. The format is functional. Conditions: read-out: DIZ.
The subject of assay [2] is Cladosporium cucumerinum. The experiment in a line: Antifungal activity against Cladosporium cucumerinum assessed as zone of inhibition at 60 ug per disc. The format is functional. Conditions: read-out: DIZ.
Assay [3] relates to Candida albicans. As to the kind of experiment: Antifungal activity against Candida albicans assessed as zone of inhibition at 100 ug per disc. Conditions: read-out: DIZ. The format is functional.
Another assay deals with HeLa. The experiment in a line: Cytotoxicity against human HeLa cells assessed as reduction in cell viability. It counts as functional, cell-based.
Assay [4] has as its system Rattus norvegicus. The experiment in a line: Antiarrhythmic activity in pentobarbital anesthetized rat model assessed as death rate at 10 mg/kg, iv relative to control. The format is functional.
For assay [5], the system named is Rattus norvegicus. As to the kind of experiment: Antiarrhythmic activity in pentobarbital anesthetized rat model assessed as ventricular fibrillation at 10 mg/kg, iv relative to control. The format is functional.
The subject of assay [6] is Rattus norvegicus. As to the kind of experiment: Antiarrhythmic activity in pentobarbital anesthetized rat model assessed as number of ventricular ectopics at 10 mg/kg, iv. It counts as functional.
The target of assay [7] is Ephrin type-A receptor 2/Ephrin-A1 (Homo sapiens, UniProt P20827+P29317). The experiment in a line: Inhibition of EPhA2-ephrin-A1 (unknown origin) protein-protein interaction. The format is protein assay.
In the next assay the test system is Bacillus subtilis. The experiment in a line: Antibacterial activity against Bacillus subtilis. The format is functional.
For a further assay, the system named is Klebsiella pneumoniae. As to the kind of experiment: Antibacterial activity against Klebsiella pneumoniae. It counts as functional.
A further assay deals with Streptococcus pneumoniae. As to the kind of experiment: Antibacterial activity against Streptococcus pneumoniae. It counts as functional.
Another assay concerns Pseudomonas aeruginosa. As to the kind of experiment: Antibacterial activity against Pseudomonas aeruginosa. It counts as functional.
Another assay relates to Acinetobacter baumannii. The experiment in a line: Antibacterial activity against Acinetobacter baumannii. It counts as functional.
Assay [8] deals with Staphylococcus aureus. As to the kind of experiment: Antibacterial activity against Staphylococcus aureus. It counts as functional.
Another assay deals with Streptococcus oralis. The experiment in a line: Antibacterial activity against Streptococcus oralis. It counts as functional.
A further assay has as its system Shigella flexneri. The experiment in a line: Antibacterial activity against Shigella flexneri. It counts as functional.
In another assay the test system is Escherichia coli. As to the kind of experiment: Antibacterial activity against Escherichia coli. It counts as functional.
For another assay, the system named is Salmonella typhimurium. The experiment in a line: Antibacterial activity against Salmonella enterica subsp. enterica serovar Typhimurium. It counts as functional.
The target in assay [9] is Human immunodeficiency virus type 1 protease (Human immunodeficiency virus 1, UniProt Q72874). The experiment in a line: Inhibition of HIV-1 protease assessed as inhibition.
Assay [10] has as its system Candida albicans. The experiment in a line: Antifungal activity against Candida albicans assessed as fungal growth inhibition per disk. It counts as functional.
The subject of a further assay is Globisporangium ultimum. As to the kind of experiment: Antifungal activity against Globisporangium ultimum assessed as fungal growth inhibition per disk. It counts as functional.
Assay [11] deals with Staphylococcus aureus. As to the kind of experiment: Antibacterial activity against Staphylococcus aureus assessed as bacterial growth inhibition per disk. It counts as functional.
Assay [12] is described as follows: Cytotoxicity against human A2780cis cells assessed as reduction in cell viability incubated for 72 hrs. The format is functional, cell-based.
In assay [13] the test system is Staphylococcus aureus. The experiment in a line: Antibacterial activity against methicillin-resistant Staphylococcus aureus. The format is functional.
For the next assay, the system named is SH-SY5Y. The experiment in a line: Neuroprotective activity against H2O2-induced human SH-SY5Y cell injury by MTT assay relative to control. It counts as functional. A general note: Tetrazolium assays rely on reduction of a dye to a coloured formazan, in cell work by metabolically active cells.

Converted amounts (≈) assume the structure as drawn.

Sequence of Ephrin type-A receptor 2/Ephrin-A1 (P29317 whole entry): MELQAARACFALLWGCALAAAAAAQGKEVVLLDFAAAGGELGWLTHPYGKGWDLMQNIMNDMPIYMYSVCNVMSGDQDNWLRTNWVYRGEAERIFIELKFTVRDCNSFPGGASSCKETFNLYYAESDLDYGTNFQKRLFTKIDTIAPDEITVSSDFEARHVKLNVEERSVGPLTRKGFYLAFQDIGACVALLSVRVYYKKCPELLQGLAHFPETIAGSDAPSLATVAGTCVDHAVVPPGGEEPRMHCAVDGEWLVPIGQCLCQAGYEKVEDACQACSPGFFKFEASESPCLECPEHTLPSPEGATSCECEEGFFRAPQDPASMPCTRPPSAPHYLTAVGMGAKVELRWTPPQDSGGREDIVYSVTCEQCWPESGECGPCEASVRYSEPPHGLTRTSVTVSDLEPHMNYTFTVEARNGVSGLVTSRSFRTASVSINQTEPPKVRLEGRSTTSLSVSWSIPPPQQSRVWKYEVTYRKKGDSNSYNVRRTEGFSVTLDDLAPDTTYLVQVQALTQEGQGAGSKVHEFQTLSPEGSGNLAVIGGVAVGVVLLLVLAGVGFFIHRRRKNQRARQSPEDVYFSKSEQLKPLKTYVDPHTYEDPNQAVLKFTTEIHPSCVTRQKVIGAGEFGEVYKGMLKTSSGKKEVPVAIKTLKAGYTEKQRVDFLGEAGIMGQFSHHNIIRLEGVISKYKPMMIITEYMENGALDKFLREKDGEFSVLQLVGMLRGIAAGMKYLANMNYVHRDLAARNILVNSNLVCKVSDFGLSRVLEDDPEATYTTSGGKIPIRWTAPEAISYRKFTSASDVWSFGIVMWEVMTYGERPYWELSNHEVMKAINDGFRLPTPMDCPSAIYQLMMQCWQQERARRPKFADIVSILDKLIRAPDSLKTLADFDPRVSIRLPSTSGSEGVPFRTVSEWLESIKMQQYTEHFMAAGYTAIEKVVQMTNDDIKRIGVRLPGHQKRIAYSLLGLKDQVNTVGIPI
Sequence of Ephrin type-A receptor 2/Ephrin-A1 (P20827 whole entry): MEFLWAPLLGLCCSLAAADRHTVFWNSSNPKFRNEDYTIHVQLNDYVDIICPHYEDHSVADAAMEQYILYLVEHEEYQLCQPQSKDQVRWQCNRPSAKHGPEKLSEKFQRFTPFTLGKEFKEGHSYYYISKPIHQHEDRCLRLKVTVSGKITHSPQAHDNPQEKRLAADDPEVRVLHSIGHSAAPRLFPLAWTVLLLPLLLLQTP

In the case of `C=C(C(=O)N[C@H](C(=O)O)c1ccc(OC)cc1)C(C)CC[C@@H](C)[C@H]1CCC2=C3[C@H](OC)C[C@H]4[C@H](C)[C@@H](OS(=O)(=O)O)CC[C@]4(C)[C@H]3CC[C@@]21C` (some centres undefined), the zone of inhibition at 30 µg/disc with Cladosporium cucumerinum [1] was 10.1 mm. In the assay on Cladosporium cucumerinum [2], the zone of inhibition at 60 µg/disc was determined as 8 mm. In the assay on Candida albicans [3], the zone of inhibition at 100 µg/disc was found to be 9.8 mm.

One may read the IC50 as the concentration needed to halve the response being measured. Take `CC(C)CCC[C@@H](C)[C@H]1CC[C@H]2[C@@H]3CC=C4C[C@@H](OC(=O)N[C@H](Cc5ccc(OP(=O)(O)O)cc5)C(=O)O)CC[C@]4(C)[C@H]3CC[C@]12C`: the IC50 with HeLa came to 16 µM.

As for `C[C@]12C[C@H](O)[C@@H](N)C[C@@H]1CC[C@@H]1[C@@H]2CC[C@]2(C)C(=O)CC[C@@H]12` [AMAFOLONE], the values for the Activity in the assay with Rattus norvegicus [4], in the assay with Rattus norvegicus [5] and in the assay with Rattus norvegicus [6] were 0%, 13% and 213, respectively.

For orientation: Ki means a dissociation constant, usually derived from enzyme kinetics or from competition with a known ligand. Low values mean higher affinity, high ones lower affinity. `C[C@H](CCC(=O)O)[C@H]1CC[C@H]2[C@@H]3CC[C@@H]4CCCC[C@]4(C)[C@H]3CC[C@]12C` [URSOCHOLANIC ACID] registered a Ki in assay [7] of 5.1 µM.

Broadly, the MIC99 is the lowest concentration that inhibits either 99% of growth or 99% of the strains tested, depending on the study. For `CCCCCCOC(=O)CC[C@@H](C)[C@H]1CC[C@H]2[C@@H]3[C@H](OC(=O)CN)C[C@@H]4C[C@H](OC(=O)CN)CC[C@]4(C)[C@H]3C[C@H](OC(=O)CN)[C@]12C`, the MIC in the assay with Bacillus subtilis, against Streptococcus pneumoniae, against Staphylococcus aureus [8] and in the assay with Streptococcus oralis was 4 µM (≈ 2.66 µg/mL) in each case. Moreover, the MIC99 in the assay with Klebsiella pneumoniae, against Pseudomonas aeruginosa, against Acinetobacter baumannii, with Shigella flexneri, in the assay on Escherichia coli and against Salmonella typhimurium was 4 µM (≈ 2.66 µg/mL) each time.

For the compound `C[C@H](CCC(=O)N[C@H](CC(=O)OCc1ccccc1)C(=O)O)[C@H]1CC[C@H]2[C@@H]3[C@H](O)C[C@@H]4C[C@H](O)CC[C@]4(C)[C@H]3C[C@H](O)[C@]12C`, the IC50 in assay [9] was determined as 125 µM.

`C=C(C(=O)N[C@H](C(=O)O)c1ccc(OC)cc1)C(C)CC[C@@H](C)[C@H]1CCC2=C3CC[C@H]4[C@H](C)[C@@H](OS(=O)(=O)O)CC[C@]4(C)[C@H]3CC[C@@]21C` (some centres undefined): the MIC in the assay on Candida albicans [10] came out at 75 µg; with Globisporangium ultimum, 25 µg; in the assay with Staphylococcus aureus [11] it was 100 µg. Further, in the assay with Cladosporium cucumerinum [1], the zone of inhibition at 30 µg/disc turned out to be 10.1 mm. Moreover, the zone of inhibition at 60 µg/disc in the assay on Cladosporium cucumerinum [2] came out at 8 mm.

Take `C[C@]12C[C@H](O)[C@@H](NC(=O)CN)C[C@H]1CC[C@@H]1[C@@H]2CC[C@]2(C)C(=O)CC[C@@H]12`: the Activity in the assay with Rattus norvegicus [5] is reported as 11%; in the assay on Rattus norvegicus [6] it was 172.

On to `CC(C)CCC[C@@H](C)[C@H]1CC[C@H]2[C@@H]3CC=C4C[C@@H](OC(=O)N[C@H](Cc5ccc(O)cc5)C(=O)O)CC[C@]4(C)[C@H]3CC[C@]12C`, for which, in assay [12], the half-maximal inhibitory concentration (IC50) is 50 µM.

On to `COC(=O)CCCN[C@@H]1CC[C@@]2(C)[C@H](C1)C[C@@H](NCCCC(=O)OC)[C@@H]1[C@@H]2CC[C@]2(C)[C@@H]([C@H](C)CCCC(C)C)CC[C@@H]12`, for which the MIC in the assay with Staphylococcus aureus [13] came to 2 µg/mL (≈ 3.32 µM).

Compound `COC(=O)[C@H](Cc1ccccc1)NC(=O)[C@@H](C)CC[C@H]1O[C@H]2C[C@H]3[C@@H]4CC[C@@H]5C[C@@H](OC)CC[C@]5(C)[C@H]4CC[C@]3(C)[C@H]2[C@@H]1C` displayed an Activity in the assay with SH-SY5Y of 102.2%.
